The first assay relates to L-calcium channel benzothiazepine binding site. The assay can be described thus: Binding at the L-calcium channel benzothiazepine binding site (diltiazem binding). As to conditions: 10 μM test compound; [3H]-cis-(+)-diltiazem 5 nM; rat cerebral cortex membranes; 20 minutes at 25° C. The procedure:
Biological Data: Investigations on Binding at the L-Calcium Channel Benzothiazepine Binding Site (Diltiazem Binding)
The biological membrane material was isolated from rat cerebral cortex. [^3H]-cis-(+)-diltiazem (5 nM in the batch) was used as ligand. Incubation was for 20 minutes at 25° C. The radioactivity measured in the presence of (±)-diltiazem (10^−6 M in the batch) is defined as the non-specific binding. The non-bound fraction of the radioactive ligand was separated after completion of the incubation, using a filtration process through Whatman glass fiber GF/B membranes. After being washed, the membranes were then measured in a β-counter. The method was developed based on the publication by Schoemaker and Langer (H. Schoemaker and S. Z. Langer (1985) Eur. J. Pharmacol. 111, 273-277).
Take `COc1cccc(C2(O)CCCN(Cc3ccc(C)c([N+](=O)[O-])c3)C2)c1.Cl` (centres unmarked) [Example 50, 3-(3-methoxyphenyl)-1-(4-methyl-3-nitro-benzyl)-piperidine-3-ol hydrochloride]: the “Diltiazem binding [10 μM] % inhibition” value amounted to 73.8%.

With `COc1cccc(C2(O)CCCN(CCc3ccccc3)C2)c1.Cl` (centres unmarked) [Example 47, 3-(3-methoxyphenyl)-1-phenethyl-piperidine-3-ol hydrochloride], the “Diltiazem binding [10 μM] % inhibition” value stood at 79.4%.

For the molecule `COc1cccc(C2(O)CCCN(Cc3ccc(F)cc3)C2)c1.Cl` (centres unmarked) [Example 33, 1-(4-fluorobenzyl)-3-(3-methoxyphenyl)-piperidine-3-ol hydrochloride], the “Diltiazem binding [10 μM] % inhibition” value was 95%.

`COc1cccc(C2(O)CCCN(Cc3cccc(C(F)(F)F)c3)C2)c1.Cl` (centres unmarked) [Example 40, 3-(3-methoxyphenyl)-1-(3-trifluoromethylbenzyl)-piperidine-3-ol hydrochloride]: the “Diltiazem binding [10 μM] % inhibition” value is given as 85.9%.

Turning to `COc1ccc(CN2CCCC(O)(c3cccc(C)c3)C2)cc1.Cl` (centres unmarked) [Example 43, 1-(4-methoxybenzyl)-3-(3-methylphenyl)-piperidine-3-ol hydrochloride], the “Diltiazem binding [10 μM] % inhibition” value was found to be 55%.

As for `COc1cccc(C2(O)CCCN(Cc3ccc(Cl)c(Cl)c3)C2)c1.Cl` (centres unmarked) [Example 37, 1-(3,4-dichlorbenzyl)-3-(3-methoxyphenyl)-piperidine-3-ol hydrochloride], the “Diltiazem binding [10 μM] % inhibition” value is 80.7%.

Take `COc1cccc(C2(O)CCCN(Cc3ccc(C)cc3)C2)c1.Cl` (centres unmarked) [Example 39, 3-(3-methoxyphenyl)-1-(4-methylbenzyl)-piperidine-3-ol hydrochloride]: the “Diltiazem binding [10 μM] % inhibition” value is 76%.

Regarding `COc1cccc(C2(O)CCCN(Cc3cccc(Br)c3)C2)c1.Cl` (centres unmarked) [Example 49, 1-(3-bromobenzyl)-3-(3-methoxyphenyl)-piperidine-3-ol hydrochloride], the “Diltiazem binding [10 μM] % inhibition” value came out at 90.4%.

On to `COc1cccc(C2(O)CCCN(Cc3cccs3)C2)c1.Cl` (centres unmarked) [Example 46, 3-(3-methoxyphenyl)-1-thiophen-2-ylmethyl-piperidine-3-ol hydrochloride], for which the “Diltiazem binding [10 μM] % inhibition” value amounted to 81.8%.

`COc1cccc(C2(O)CCCN(Cc3cc(F)cc(F)c3)C2)c1.Cl` (centres unmarked) [Example 36, 1-(3,5-difluorobenzyl)-3-(3-methoxyphenyl)-piperidine-3-ol hydrochloride]: the “Diltiazem binding [10 μM] % inhibition” value came to 57.4%.

As for `COc1cccc(C2(O)CCCN(Cc3ccc(Br)cc3)C2)c1.Cl` (centres unmarked) [Example 34, 1-(4-bromobenzyl)-3-(3-methoxyphenyl)-piperidine-3-ol hydrochloride], the “Diltiazem binding [10 μM] % inhibition” value is listed as 78.7%.

On to `COc1cccc(C2(O)CCCN(Cc3cccc(F)c3)C2)c1.Cl` (centres unmarked) [Example 32, 1-(3-fluorobenzyl)-3-(3-methoxyphenyl)-piperidine-3-ol hydrochloride], for which the “Diltiazem binding [10 μM] % inhibition” value came out at 83.7%.

On to `COc1cccc(C2(O)CCCN(Cc3ccc([N+](=O)[O-])cc3)C2)c1.Cl` (centres unmarked) [Example 42, 3-(3-methoxyphenyl)-1-(4-nitrobenzyl)-piperidine-3-ol hydrochloride], for which the “Diltiazem binding [10 μM] % inhibition” value was 50%.

For `COc1cccc(C2(O)CCCN(Cc3ccc(C#N)cc3)C2)c1.Cl` (centres unmarked) [Example 44, 4-[3-hydroxy-3-(3-methoxyphenyl)-piperidine-1-ylmethyl]-benzonitrile hydrochloride], the “Diltiazem binding [10 μM] % inhibition” value amounted to 52.3%.

For the molecule `COc1cccc(C2(O)CCCN(CCOc3ccccc3)C2)c1.Cl` (centres unmarked) [Example 41, 3-(3-methoxyphenyl)-1-(2-phenoxy-ethyl)-piperidine-3-ol hydrochloride], the “Diltiazem binding [10 μM] % inhibition” value stood at 92.7%.

On to `COc1cccc(C2(O)CCCN(C(=O)c3ccc(C)cc3)C2)c1` (centres unmarked) [Example 9, [3-hydroxy-3-(3-methoxyphenyl)-piperidine-1-yl]-p-tolyl-methanone], for which the “Diltiazem binding [10 μM] % inhibition” value is given as 55.8%.

As to `COc1cccc(C2(O)CCCN(Cc3ccc(Cl)c([N+](=O)[O-])c3)C2)c1.Cl` (centres unmarked) [Example 51, 1-(4-chloro-3-nitro-benzyl)-3-(3-methoxyphenyl)-piperidine-3-ol hydrochloride], the “Diltiazem binding [10 μM] % inhibition” value is given as 81.4%.

Take `COc1cccc(C2(O)CCCN(CC(c3ccccc3)c3ccccc3)C2)c1.Cl` (centres unmarked) [Example 48, 1-(2,2-diphenyl-ethyl)-3-(3-methoxyphenyl)-piperidine-3-ol hydrochloride]: the “Diltiazem binding [10 μM] % inhibition” value is listed as 88.2%.

As to `COc1cccc(C2(O)CCCN(Cc3cc(C(F)(F)F)cc(C(F)(F)F)c3)C2)c1.Cl` (centres unmarked) [Example 52, 1-(3,5-bis-trifluoromethyl-benzyl)-3-(3-methoxyphenyl)-piperidine-3-ol hydrochloride], the “Diltiazem binding [10 μM] % inhibition” value is on record as 75.9%.

Staying with this assay, now noted: radioligand; rat cerebral cortex membranes; N=3, mean ±SEM; read-out: KD value for this high affinity binding site.
As to “[^3H]-cis-(+)-diltiazem [reference compound]”, the Kd worked out at 4.1 ± 0.75 nM.

The values above are taken from patent publication US7790898B2, “Substituted 3-phenylpiperidine compounds, their preparation and use” (Gruenenthal GmbH, priority 2004, dated 2010).
